Laboratory results taken from patent US4459290A, “C-23-Modified derivatives of OMT, pharmaceutical compositions and method of use” (priority 1982, dated 1984).
In brackets after ≈: the same amount, converted by molar mass. Like-named read-outs stand apart in the source and are kept apart here.

Tests used:
[1] = system: Streptococcus pyogenes C203; experiment: ED50 in mice experimentally infected with S. pyogenes C203 (Table VIII); type: in vivo
Description: The C-23 modified derivatives of OMT of this invention have shown in vivo antimicrobial activity against experimental infections. When two doses of test compound were administered to mice experimentally infected with a gram-positive bacterium, S. pyogenes C203, the activity observed was measured as an ED50 value [effective dose in mg/kg to protect 50% of the test animals: see Warren Wick, et al., J. Bacteriol. 81, 233-235 (1961)].

Mycoplasma gallisepticum = experiment: MIC, broth-dilution microtiter test (Table VII); type: cell-based; conditions: Mycoplasmoides gallisepticum; M. gallisepticum; broth-dilution microtiter; read-out: MIC
Description: (§1) Especially noteworthy is the improved activity against gram-negative bacteria for several derivatives when compared to the activity of OMT. […] The MIC's in Tables V and VI were determined by standard agar-dilution assays. The MIC's in Table VII were obtained using a conventional broth-dilution microtiter test.

[2] = system: Pasteurella multocida 22A; experiment: MIC, broth-dilution microtiter test (Table VII); type: cell-based; conditions: Pasteurella multocida; P. multocida 22A; broth-dilution microtiter; read-out: MIC
Method in brief: (§2)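 MICs were determined two ways: a standard agar-dilution assay for the Enterobacter aerogenes strain, and a conventional broth-dilution microtiter test for Staphylococcus aureus and both Pasteurella multocida strains.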

Mycoplasma synoviae = experiment: MIC, broth-dilution microtiter test (Table VII); type: cell-based; conditions: Mycoplasmopsis synoviae; M. synoviae; broth-dilution microtiter; read-out: MIC
Description: as §1

[3] = system: Pasteurella multocida 68C; experiment: MIC, broth-dilution microtiter test (Table VII); type: cell-based; conditions: Pasteurella multocida; P. multocida 68C; broth-dilution microtiter; read-out: MIC
Method in brief: as §2

Staphylococcus aureus = experiment: MIC, broth-dilution microtiter test (Table VII); type: cell-based; conditions: Staphylococcus aureus; S. aureus; broth-dilution microtiter; read-out: MIC
Method in brief: as §2

[4] = system: Pasteurella multocida 17E; experiment: MIC, broth-dilution microtiter test (Table VII); type: cell-based; conditions: Pasteurella multocida; P. multocida 17E, bovine isolate; broth-dilution microtiter; read-out: MIC
Method in brief: as §2

Streptococcus sp. 80 = experiment: MIC, broth-dilution microtiter test (Table VII); type: cell-based; conditions: Streptococcus sp. 80; broth-dilution microtiter; read-out: MIC
Description: as §1

[5] = system: Pasteurella hemolytica 23C; experiment: MIC, broth-dilution microtiter test (Table VII); type: cell-based; conditions: Pasteurella, P. hemolytica 23C, read-out: MIC
Method in brief: (§3)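 Growth inhibition in liquid medium, in a routine microtiter broth-dilution series, gave the MIC against staphylococci and pasteurellae; the gram-negative enteric strain was tested by conventional agar dilution instead.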

[6] = system: Pasteurella hemolytica 22C; experiment: MIC, broth-dilution microtiter test (Table VII); type: cell-based; conditions: Pasteurella, P. hemolytica 22C, read-out: MIC
Method in brief: as §3

[7] = system: Pasteurella hemolytica 41D; experiment: MIC, broth-dilution microtiter test (Table VII); type: cell-based; conditions: Pasteurella, P. hemolytica 41D, read-out: MIC
Method in brief: as §3

Mycoplasma hyorhinis = experiment: MIC, broth-dilution microtiter test (Table VII); type: cell-based; conditions: M. hyorhinis; broth-dilution microtiter; read-out: MIC
Description: as §1

[8] = system: Pasteurella multocida 60A; experiment: MIC, broth-dilution microtiter test (Table VII); type: cell-based; conditions: Pasteurella multocida; P. multocida 60A, avian isolate; broth-dilution microtiter; read-out: MIC
Method in brief: as §2

[9] = system: Pasteurella multocida 40G; experiment: MIC, broth-dilution microtiter test (Table VII); type: cell-based; conditions: Pasteurella multocida
Method in brief: as §2

[10] = system: Enterobacter aerogenes EB17; experiment: MIC, standard agar-dilution assay (Table VI); type: cell-based; conditions: Klebsiella aerogenes
Description: as §1

Enterobacter cloacae EB5 = experiment: MIC, standard agar-dilution assay (Table VI); type: cell-based; conditions: E. cloacae EB5, agar dilution, read-out: MIC
Description: as §1

Salmonella typhi 1335 = experiment: MIC, standard agar-dilution assay (Table VI); type: cell-based; conditions: Salmonella enterica
Description: as §1

[11] = system: Pseudomonas aeruginosa Ps18; experiment: MIC, standard agar-dilution assay (Table VI); type: cell-based; conditions: P. aeruginosa Ps18, agar dilution, read-out: MIC
Description: as §1

[12] = system: Enterobacter aerogenes C32; experiment: MIC, standard agar-dilution assay (Table VI); type: cell-based; conditions: Klebsiella aerogenes
Description: as §1

Proteus rettgeri PR7 = experiment: MIC, standard agar-dilution assay (Table VI); type: cell-based; conditions: Providencia rettgeri; P. rettgeri PR7; agar dilution; read-out: MIC
Description: as §1

[13] = system: Pseudomonas aeruginosa X239; experiment: MIC, standard agar-dilution assay (Table VI); type: cell-based; conditions: P. aeruginosa X239, agar dilution, read-out: MIC
Description: as §1

[14] = system: Klebsiella pneumoniae X68; experiment: MIC, standard agar-dilution assay (Table VI); type: cell-based; conditions: X68
Description: as §1

Serratia marcescens SE3 = experiment: MIC, standard agar-dilution assay (Table VI); type: cell-based; conditions: S. marcescens SE3, agar dilution, read-out: MIC
Description: as §1

[15] = system: Citrobacter freundii CF17; experiment: MIC, standard agar-dilution assay (Table VI); type: cell-based
Description: as §1

Proteus rettgeri C24 = experiment: MIC, standard agar-dilution assay (Table VI); type: cell-based; conditions: Providencia rettgeri, P. rettgeri C24
Description: as §1

Proteus inconstans PR33 = experiment: MIC, standard agar-dilution assay (Table VI); type: cell-based; conditions: Providencia alcalifaciens
Description: as §1

[16] = system: Salmonella heidelberg X514; experiment: MIC, standard agar-dilution assay (Table VI); type: cell-based; conditions: Salmonella enterica
Description: as §1

[17] = system: Pseudomonas aeruginosa X528; experiment: MIC, standard agar-dilution assay (Table VI); type: cell-based
Description: as §1

Proteus morganii PR15 = experiment: MIC, standard agar-dilution assay (Table VI); type: cell-based; conditions: Morganella morganii; P. morganii PR15; agar dilution; read-out: MIC
Description: as §1

Serratia marcescens X99 = experiment: MIC, standard agar-dilution assay (Table VI); type: cell-based; conditions: S. marcescens X99, agar dilution, read-out: MIC
Description: as §1

[18] = system: Staphylococcus aureus V41; experiment: MIC, standard agar-dilution assay (Table V); type: cell-based; conditions: Staphylococcus aureus, V41
Description: as §1

[19] = system: Staphylococcus aureus X1.1; experiment: MIC, standard agar-dilution assay (Table V); type: cell-based; conditions: Staphylococcus aureus; S. aureus X1.1; agar dilution; read-out: MIC
Description: as §1

[20] = system: Staphylococcus aureus X400; experiment: MIC, standard agar-dilution assay (Table V); type: cell-based; conditions: Staphylococcus aureus
Description: as §1

[21] = system: Streptococcus Group D X66; experiment: MIC, standard agar-dilution assay (Table V); type: cell-based
Description: as §1

Streptococcus Group 9960 = experiment: MIC, standard agar-dilution assay (Table V); type: cell-based; conditions: GROUP9960
Description: as §1

[22] = system: Streptococcus pneumoniae Park I; experiment: microbe, parasite or virus in culture; type: cell-based; conditions: Streptococcus pneumoniae, read-out: MIC
Description: as §1

[23] = C203, sc, mice, subcutaneous, doses given 1 and 4 hours postinfection, read-out: ED50, Subcutaneous

Work on `CCC1OC(=O)CC(O)C(C)C(OC2OC(C)C(O)C(N(C)C)C2O)C(CC=O)CC(C)C(=O)C=CC(C)=CC1CSc1ccccc1` (centres unmarked) [Compound 2, 23-Deoxy-23-(phenyl)thio-OMT] yielded an ED50 ([1]; C203, po, read-out: ED50, Oral) of over 100 mg/kg, an ED50 [1, 23] of 25.7 mg/kg and an MIC (Mycoplasma gallisepticum) of 0.09 µg/mL (≈ 0.13 µM). For the same compound, the MIC [2] was 1.56 µg/mL (≈ 2.26 µM), the MIC (Mycoplasma synoviae) was 0.39 µg/mL (≈ 0.565 µM) and the MIC [3] was 1.56 µg/mL (≈ 2.26 µM). The MIC (Staphylococcus aureus) was 0.39 µg/mL (≈ 0.565 µM), the MIC [4] was 1.56 µg/mL (≈ 2.26 µM) and the MIC (Streptococcus sp. 80) was 0.09 µg/mL (≈ 0.13 µM). It also gave an MIC [5] of 3.12 µg/mL (≈ 4.52 µM), an MIC [6] of 3.12 µg/mL (≈ 4.52 µM) and an MIC [7] of 1.56 µg/mL (≈ 2.26 µM). It also gave an MIC (Mycoplasma hyorhinis) of 12.5 µg/mL (≈ 18.1 µM), an MIC [8] of 1.56 µg/mL (≈ 2.26 µM) and an MIC ([9]; 40G) of 0.78 µg/mL (≈ 1.13 µM). It also gave an MIC ([10]; EB17) of 32 µg/mL (≈ 46.4 µM), an MIC (Enterobacter cloacae EB5) of 64 µg/mL (≈ 92.8 µM) and an MIC (Salmonella typhi 1335) of 64 µg/mL (≈ 92.8 µM). The MIC [11] was 64 µg/mL (≈ 92.8 µM), the MIC ([12]; C32) was 32 µg/mL (≈ 46.4 µM) and the MIC (Proteus rettgeri PR7) was 16 µg/mL (≈ 23.2 µM). The MIC [13] was 64 µg/mL (≈ 92.8 µM), the MIC [14] was 32 µg/mL (≈ 46.4 µM) and the MIC (Serratia marcescens SE3) was 64 µg/mL (≈ 92.8 µM). For the same compound, the MIC ([15]; CF17) was 32 µg/mL (≈ 46.4 µM), the MIC (Proteus rettgeri C24) was 16 µg/mL (≈ 23.2 µM) and the MIC (Proteus inconstans PR33; PR33) was 32 µg/mL (≈ 46.4 µM). The MIC ([16]; X514) was 64 µg/mL (≈ 92.8 µM), the MIC ([17]; X528) was 16 µg/mL (≈ 23.2 µM) and the MIC (Proteus morganii PR15) was 8 µg/mL (≈ 11.6 µM). For the same compound, the MIC (Serratia marcescens X99) was 64 µg/mL (≈ 92.8 µM), the MIC [18] was 0.125 µg/mL (≈ 0.181 µM) and the MIC [19] was 0.125 µg/mL (≈ 0.181 µM). For the same compound, the MIC ([20]; S. aureus X400, methicillin-resistant strain, agar dilution, read-out: MIC) was 0.125 µg/mL (≈ 0.181 µM), the MIC ([21]; Streptococcus Group D X66, agar dilution, read-out: MIC) was 0.06 µg/mL (≈ 0.087 µM) and the MIC (Streptococcus Group 9960) was 0.5 µg/mL (≈ 0.725 µM). It also gave an MIC [22] of 0.06 µg/mL (≈ 0.087 µM).
`CCC1OC(=O)CC(O)C(C)C(OC2OC(C)C(O)C(N(C)C)C2O)C(CC=O)CC(C)C(=O)C=CC(C)=CC1CF` (centres unmarked) [Compound 15, 23-Deoxy-23-fluoro-OMT] was tested, and the ED50 ([1]; C203, po, read-out: ED50, Oral) was over 100 mg/kg, the ED50 [1, 23] was 4.6 mg/kg and the MIC (Mycoplasma gallisepticum) was 0.09 µg/mL (≈ 0.15 µM). It also gave an MIC [2] of 3.12 µg/mL (≈ 5.2 µM), an MIC (Mycoplasma synoviae) of 0.39 µg/mL (≈ 0.65 µM) and an MIC [3] of 3.12 µg/mL (≈ 5.2 µM). It also gave an MIC (Staphylococcus aureus) of 1.56 µg/mL (≈ 2.6 µM), an MIC [4] of 3.12 µg/mL (≈ 5.2 µM) and an MIC (Streptococcus sp. 80) of at most 0.78 µg/mL. It also gave an MIC [5] of 6.25 µg/mL (≈ 10.4 µM), an MIC [6] of 3.12 µg/mL (≈ 5.2 µM) and an MIC [7] of 3.12 µg/mL (≈ 5.2 µM). It also gave an MIC (Mycoplasma hyorhinis) of 0.78 µg/mL (≈ 1.3 µM), an MIC [8] of 3.12 µg/mL (≈ 5.2 µM) and an MIC ([9]; P. multocida 40G, broth-dilution microtiter, read-out: MIC) of 1.56 µg/mL (≈ 2.6 µM). It also gave an MIC ([10]; E. aerogenes EB17, agar dilution, read-out: MIC) of 64 µg/mL (≈ 107 µM), an MIC (Enterobacter cloacae EB5) of over 128 µg/mL and an MIC (Salmonella typhi 1335) of 64 µg/mL (≈ 107 µM). It also gave an MIC [11] of 32 µg/mL (≈ 53.4 µM), an MIC ([12]; E. aerogenes C32, agar dilution, read-out: MIC) of 64 µg/mL (≈ 107 µM) and an MIC (Proteus rettgeri PR7) of 32 µg/mL (≈ 53.4 µM). For the same compound, the MIC [13] was 64 µg/mL (≈ 107 µM), the MIC [14] was 64 µg/mL (≈ 107 µM) and the MIC (Serratia marcescens SE3) was over 128 µg/mL. For the same compound, the MIC ([15]; C. freundii CF17, agar dilution, read-out: MIC) was over 128 µg/mL, the MIC (Proteus rettgeri C24) was 32 µg/mL (≈ 53.4 µM) and the MIC (Proteus inconstans PR33; P. inconstans PR33, agar dilution, read-out: MIC) was over 128 µg/mL. The MIC ([16]; S. heidelberg X514, agar dilution, read-out: MIC) was 64 µg/mL (≈ 107 µM), the MIC ([17]; P. aeruginosa X528, agar dilution, read-out: MIC) was 16 µg/mL (≈ 26.7 µM) and the MIC (Proteus morganii PR15) was 64 µg/mL (≈ 107 µM). The MIC (Serratia marcescens X99) was 64 µg/mL (≈ 107 µM), the MIC [18] was 0.5 µg/mL (≈ 0.834 µM) and the MIC [19] was 0.25 µg/mL (≈ 0.417 µM). It also gave an MIC ([20]; X400) of 0.5 µg/mL (≈ 0.834 µM), an MIC [21] of 0.5 µg/mL (≈ 0.834 µM) and an MIC (Streptococcus Group 9960) of 0.5 µg/mL (≈ 0.834 µM). The MIC ([22]; S. pneumoniae Park I, agar dilution) was 0.125 µg/mL (≈ 0.208 µM).
